# Test results taken from patent publication US11390609B2, “Rho-associated protein kinase inhibitor, pharmaceutical composition comprising same, and preparation method and use thereof” (BEIJING TIDE PHARMACEUTICAL CO., LTD., priority 2017, dated 2022).
# How the values were obtained:
# ROCK2 = ROCK2 (Homo sapiens, UniProt O75116); test: ROCK2 kinase IC50 assay (CISBIO HTRF KinEASE-STK S2 kit); type: biochemical; settings: incubated at room temperature for 2 hours
# Description: The kinase IC50 was determined by a commercialized CISBIO kinase detection kit, HTRF KinEASE-STK S2 kit (62ST2PEC). ROCK2 (01-119) employed in the reaction was purchased from Carna Biosciences.
# Before the assay, the following working solutions as needed were formulated with corresponding reagents according to the instruction of the kinase detection kit: 1×kinase buffer, 5×STK-52 substrate working solution (1.5 μM) and 5×ATP working solution (1.5 μM), 5×ROCK2 kinase working solution, 4×Streptavidin-XL665 working solution, and 4×STK-Ab-Cryptate 2 detection solution. Then the assay was performed according to the following procedure.
# A solution of a compound at a concentration of 10000 nM was prepared with the 1×kinase buffer containing 2.5% DMSO. Gradient dilution of the solution of the compound was performed with the kinase buffer containing DMSO, so as to obtain solutions of a test compound at 9 different concentrations. In addition to wells of test compounds, a positive well (containing all the reagents except the compound) and a negative well (containing all the reagents except the test compound and kinase) were set. Except for the control wells (positive and negative wells), a solution of a test compound (4 μL) was added to each of the reaction wells, and a solution of 2.5% DMSO was added to the control wells. Then the substrate ([…], 2 μL. 5×STK-S2 substrate working solution) was added to each of the reaction wells. The 5×ROCK2 kinase working solution (2 μL, containing 1.4 ng ROCK2 kinase) was added to each of the reaction wells except for the negative well, the volume of which was made up with the 1×kinase buffer (2 μL). The 5×ATP working solution (2 μL) was added to each of the reaction wells, and the mixtures were incubated at room temperature for 2 hours. After the kinase reaction was complete, the 4×Streptavidin-XL665 working solution was added to each of the reaction wells, the solutions were mixed, followed by immediate addition of the 4×STK-Ab-Cryptate 2 detection solution (5 μL), and the mixtures were incubated at room temperature for 1 hour. The fluorescence signal was read on ENVISION (Perkinelmer) (excitation wavelength: 320 nm, and emission wavelength: 665 nm and 615 nm). The inhibitory rate in each well was calculated based on the fluorescence intensity value: ER (Emission Ratio)=(fluorescence intensity at 665 nm/fluorescence intensity at 615 nm); inhibitory rate=(ERpositive−ERtest compound)/(ERpositive−ERnegative)*100%. Curves were plotted and fitted to obtain the median inhibitory concentration (IC50) of each teat compound with the PRISM 5.0 software.
# ROCK1 = ROCK1 (Homo sapiens (Human), UniProt Q13464); test: ROCK1 kinase IC50 assay (biological test method similar to the ROCK2 assay); type: biochemical
# ROCK1, sequence (Q13464 whole entry, species assumed): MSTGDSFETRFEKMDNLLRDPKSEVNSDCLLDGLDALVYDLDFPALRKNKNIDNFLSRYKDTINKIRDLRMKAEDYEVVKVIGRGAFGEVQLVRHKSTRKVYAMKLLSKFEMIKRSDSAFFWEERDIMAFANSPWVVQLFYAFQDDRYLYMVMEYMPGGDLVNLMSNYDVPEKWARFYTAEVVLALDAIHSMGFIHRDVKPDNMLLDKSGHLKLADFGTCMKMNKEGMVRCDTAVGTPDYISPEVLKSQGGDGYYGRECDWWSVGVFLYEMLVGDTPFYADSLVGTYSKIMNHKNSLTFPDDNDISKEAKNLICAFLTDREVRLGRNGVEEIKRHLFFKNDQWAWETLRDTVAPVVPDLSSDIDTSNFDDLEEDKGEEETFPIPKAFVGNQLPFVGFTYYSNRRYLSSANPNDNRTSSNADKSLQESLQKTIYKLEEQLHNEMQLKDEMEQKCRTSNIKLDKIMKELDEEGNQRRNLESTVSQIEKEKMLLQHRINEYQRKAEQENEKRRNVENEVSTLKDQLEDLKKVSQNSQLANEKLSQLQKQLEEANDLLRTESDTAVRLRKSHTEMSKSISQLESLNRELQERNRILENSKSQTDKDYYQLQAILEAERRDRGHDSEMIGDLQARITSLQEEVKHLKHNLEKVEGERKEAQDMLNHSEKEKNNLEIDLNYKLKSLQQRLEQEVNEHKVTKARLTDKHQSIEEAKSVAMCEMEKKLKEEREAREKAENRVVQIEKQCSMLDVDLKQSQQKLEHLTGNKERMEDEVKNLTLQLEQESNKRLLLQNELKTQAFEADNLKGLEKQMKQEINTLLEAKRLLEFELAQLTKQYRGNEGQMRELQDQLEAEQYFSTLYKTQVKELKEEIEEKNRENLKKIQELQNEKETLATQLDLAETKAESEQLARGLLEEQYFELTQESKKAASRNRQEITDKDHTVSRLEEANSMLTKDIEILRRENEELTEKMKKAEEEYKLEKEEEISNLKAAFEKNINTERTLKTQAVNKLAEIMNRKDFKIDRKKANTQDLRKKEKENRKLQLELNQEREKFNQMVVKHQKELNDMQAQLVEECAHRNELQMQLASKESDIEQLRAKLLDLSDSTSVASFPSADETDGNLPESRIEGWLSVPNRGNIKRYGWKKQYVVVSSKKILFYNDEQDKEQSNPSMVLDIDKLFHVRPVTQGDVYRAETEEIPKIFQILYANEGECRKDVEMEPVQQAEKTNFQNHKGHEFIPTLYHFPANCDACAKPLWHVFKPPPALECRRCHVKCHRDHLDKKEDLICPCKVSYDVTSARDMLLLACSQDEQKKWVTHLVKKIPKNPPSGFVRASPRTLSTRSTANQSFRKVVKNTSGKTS
# In short: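 HTRF KinEASE-STK S2 assay with the STK-S2 biotinylated substrate and ATP, at 5× working solutions of 1.5 µM each. Kinase reaction with 9-point compound dilutions ran 2 h at room temperature, followed by 1 h streptavidin-XL665/Cryptate detection. The 665/615 nm ratio was normalised to no-compound and no-kinase wells, and IC50 was obtained by curve fitting.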
Compound,IC50 (ROCK2),IC50 (ROCK1)
"5-(4-((4-(1H-pyrazol-4- yl)phenyl)amino)pyrimidin- 2-yl)-N,N-diethyl-1H- indole-2-carboxamide [TDI01408]",0.4 µM,5.63 µM
"CC(C)(C)OC(=O)n1ncc2cc(NC(=O)c3cc4ccc(-c5nccc(Nc6ccc7[nH]ncc7c6)n5)cc4[nH]3)ccc21 [TDI01248, tert-butyl 5-(6-(4-((1H-indazol-5-yl)amino)-pyrimidin-2-yl)-1H-indole-2-carboxamido)-1H-indazole-1-carboxylate]",0.5 µM,
"CN1CCN(C2CCN(C(=O)c3cc4ccc(-c5nccc(Nc6ccc7[nH]ncc7c6)n5)cc4[nH]3)CC2)CC1 [TDI01319, (6-(4-((1H-indazol-5-yl)amino)-pyrimidin-2-yl)-1H-indol-2-yl)(4-(4-methyl-piperazin-1-yl)piperidin-1-yl)methanone]",0.258 µM,> 10 µM
"CN(C)C(=O)c1cc2ccc(-c3nccc(Nc4ccc5[nH]ncc5c4)n3)cc2[nH]1 [TDI01353, 6-(4-((1H-indazol-5-yl)amino)-pyrimidin-2-yl)-N,N-dimethyl-1H-indole-2-carboxamide]",0.307 µM,
"O=C(c1cc2ccc(-c3nccc(Nc4ccc5[nH]ncc5c4)n3)cc2[nH]1)N1CCC2(CCNCC2)CC1 [TDI01360, (6-(4-((1H-indazol-5-yl)amino)-pyrimidin-2-yl)-1H-indol-2-yl)(3.9-diazaspiro[5.5]undecan-3-yl)methanone]",0.026 µM,1.47 µM
"O=C(c1cc2ccc(-c3nccc(Nc4ccc(-c5cn[nH]c5)cc4)n3)cc2[nH]1)N1CC2(CNC2)C1 [TDI01369, (6-(4-((4-(1H-pyrazol-4-yl)phenyl)-amino)-pyrimidin-2-yl)-1H-indol-2-yl)(2,6-diazaspiro[3.3]heptan-2-yl)methanone]",0.266 µM,6.79 µM
"O=C(Nc1ccncc1Cl)c1cc2ccc(-c3nccc(Nc4ccc5[nH]ncc5c4)n3)cc2s1 [TDI01372, 6-(4-((1H-indazol-5-yl)amino)-pyrimidin-2-yl)-N-(3-chloropyridin-4-yl)benzo[b]-thiophene-2-carboxamide]",0.123 µM,> 10 µM
"O=C(Nc1ccncc1Cl)N1Cc2ccc(-c3nccc(Nc4ccc5[nH]ncc5c4)n3)cc2C1 [TDI01374, 5-(4-((1H-indazol-5-yl)amino)pyrimidin-2-yl)-N-(3-chloropyridin-4-yl)isoindoline-2-carboxamide]",0.064 µM,> 10 µM
"COC(=O)C(Cc1c[nH]cn1)NC(=O)c1cc2ccc(-c3nccc(Nc4ccc5[nH]ncc5c4)n3)cc2[nH]1 (stereo not drawn) [TDI01385, methyl (6-(4-((1H-indazol-5-yl)amino)-pyrimidin-2-yl)-1H-indole-2-carbonyl)-histidinate]",0.107 µM,
"O=C(NC1CCCN(C2CCOCC2)C1)c1cc2ccc(-c3nccc(Nc4ccc5[nH]ncc5c4)n3)cc2[nH]1 (stereo not drawn) [TDI01390, 6-(4-((1H-indazol-5-yl)amino)-pyrimidin-2-yl)-N-(1-(tetrahydro-2H-pyran-4-yl)piperidin-3-yl)-1H-indole-2-carboxamide]",0.018 µM,0.456 µM
"CN(C(=O)c1cc2ccc(-c3nccc(Nc4ccc5[nH]ncc5c4)n3)cc2s1)C1CCOC1 (stereo not drawn) [TDI01392, 6-(4-((1H-indazol-5-yl)amino)pyrimidin-2-yl)-N-methyl-N-(tetrahydrofuran-3-yl)ben-zo[b]thiophene-2-carboxamide]",0.172 µM,> 10 µM
"O=C(Nc1ccncc1F)c1cc2ccc(-c3nccc(Nc4ccc5[nH]ncc5c4)n3)cc2[nH]1 [TDI01394, 6-(4-((1H-indazol-5-yl)amino)pyrimidin-2-yl)-N-(3-fluoropyridin-4-yl)-1H-indole-2-carboxamide]",0.028 µM,> 10 µM
"O=C(Oc1ccccc1)N1Cc2ccc(-c3nccc(Nc4ccc5[nH]ncc5c4)n3)cc2C1 [TDI01403, phenyl 5-(4-((1H-indazol-5-yl)amino)pyrimidin-2-yl)isoindoline-2-caiboxylate]",0.11 µM,3 µM
"O=C(c1cc2ccc(-c3nc(Nc4ccc5[nH]ncc5c4)c4sccc4n3)cc2[nH]1)N1CCC2(CCNCC2)CC1 [TDI01404, (6-(4-((1H-indazol-5-yl)amino)-thieno[3,2-d]pyrimidin-2-yl)-1H-indol-2-yl)(3,9-diazaspiro[5.5]undecan-3-yl)methanone]",0.035 µM,1.52 µM
"CNC(=O)c1cc2ccc(-c3nc(Nc4ccc5[nH]ncc5c4)c4sccc4n3)cc2[nH]1 [TDI01405, 6-(4-((1H-indazol-5-yl)amino)-thieno[3,2-d]pyrimidin-2-yl)-N-methyl-1H-indole-2-carboxamide]",0.16 µM,4.06 µM
"CN(C)C(=O)c1cc2ccc(-c3nc(Nc4ccc5[nH]ncc5c4)c4sccc4n3)cc2[nH]1 [TDI01406, 6-(4-((1H-indazol-5-yl)amino)-thieno[3,2-d]pyrimidin-2-yl)-N,N-dimethyl-1H-indole-2-carboxamide]",0.285 µM,
"CN(C(=O)c1cc2ccc(-c3nccc(Nc4ccc(-c5cn[nH]c5)cc4)n3)cc2[nH]1)C1CCOC1 (stereo not drawn) [TDI01419, 6-(4-((4-(1H-pyrazol-4-yl)phenyl)amino)pyrimidin-2-yl)-N-methyl-N-(tetrahydrofuran-3-yl)-1H-indole-2-carboxamide]",0.385 µM,> 10 µM
"CN(CC(F)(F)F)C(=O)c1cc2ccc(-c3nccc(Nc4ccc(-c5cn[nH]c5)cc4)n3)cc2s1 [TDI01428, 6-(4-((4-(1H-pyrazol-4-yl)phenyl)-amino)-pyrimidin-2-yl)-N-methyl-N-(2,2,2-trifluoroethyl)-benzo[b]-thiophene-2-carboxamide]",0.069 µM,> 10 µM
"CN(CC(F)(F)F)C(=O)c1cc2cc(-c3nccc(Nc4ccc(-c5cn[nH]c5)cc4)n3)ccc2[nH]1 [TDI01429, 5-(4-((4-(1H-pyrazol-4-yl)phenyl)amino)pyrimidin-2-yl)-N-methyl-N-(2,2,2-trifluoroethyl)-1H-indole-2-carboxamide]",0.099 µM,> 10 µM
"O=C(C1CC(F)(F)C1)N1CCc2ccc(-c3nccc(Nc4ccc5[nH]ncc5c4)n3)cc2C1 [TDI01682, (7-(4-((1H-indazol-5-yl)amino)pyrimidin-2-yl)-3,4-dihydroisoquinolin-2(1H)-yl)(3,3-difluorocyclobutyl)methanone]",0.36 µM,
"Cn1c(-n2ccnc2)cc2ccc(-c3nccc(Nc4ccc(-c5cn[nH]c5)c(F)c4)n3)cc21 [TDI01684, 2-(2-(1H-imidazol-1-yl)-1-methyl-1H-indol-6-yl)-N-(3-fluoro-4-(1H-pyrazol-4-yl)phenyl)pyrimidin-4-amine]",0.171 µM,
"COc1cc(Nc2ccc3[nH]ncc3c2)nc(-c2ccc3cc(C(=O)Nc4ccnnc4)[nH]c3c2)n1 [TDI01801, 6-(4-((1H-indazol-5-yl)amino)-6-methoxy-pyrimidin-2-yl)-N-(pyridazin-4-yl)-1H-indole-2-carboxamide]",0.068 µM,
"O=C(NC1CCN(c2ccncc2)CC1)c1cc2ccc(-c3nccc(Nc4ccc5[nH]ncc5c4)n3)cc2[nH]1 [TDI01814, 6-(4-((1H-indazol-5-yl)amino)-pyrimidin-2-yl)-N-(1-(pyridin-4-yl)piperidin-4-yl)-1H-indole-2-carboxamide]",0.018 µM,
"C[C@@H](NC(=O)c1cc2ccc(-c3nccc(Nc4ccc5[nH]ncc5c4)n3)cc2[nH]1)c1ccncc1 [TDI01849, (R)-6-(4-((1H-indazol-5-yl)amino)-pyrimpidin-2-yl)-N-(1-(pyridin-4-yl)ethyl)-1H-indole-2-carboxamide]",0.132 µM,
"CC(C)NC(=O)c1cc2ccc(-c3nc(Nc4ccc(-c5cn[nH]c5)cc4)cc(OCCN(C)C)n3)cc2[nH]1 [TDI01865, 6-(4-((4-(1H-pyrazol-4-yl)phenyl)amino)-6-(2-(dimethylami-no)ethoxy)pyrimidin-2-yl)-N-isopropyl-1H-indole-2-carboxamide]",0.4 µM,
"O=C(NC1CCCC(N2CCOCC2)C1)c1cc2ccc(-c3nccc(Nc4ccc(-c5cn[nH]c5)cc4)n3)cc2[nH]1 (stereo not drawn) [TDI01878, 6-(4-((4-(1H-pyrazol-4-yl)phenyl)-amino)-pyrimidin-2-yl)-N-(3-morpholino-cyclohexyl)-1H-indole-2-carboxamide]",0.009 µM,
"Cc1cc2ccc(-c3nccc(Nc4ccc5[nH]ncc5c4)n3)cc2[nH]1 [TDI01901, N-(2-(2-methyl-1H-indol-6-yl)pyrimidin-4-yl)-1H-indazol-5-amine]",0.387 µM,
